This test relates to CEM cells HIV-1 protection, formazan growth assay. Kind of test: NCI AIDS Antiviral Assay. The note with it: for IC50: measured here: growth of uninfected CEM cells. The essentials: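 Human CEM cells, uninfected and HIV-1-infected, exposed to five drug concentrations; growth measured by soluble formazan assay and scored as percent protection from infection, with protecting compounds retested.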

The source made the active and inactive calls.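 How the source made its calls: active means compounds giving half or more protection of infected cells from virus-caused growth loss, again on retest; inactive means the rest.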

In general, EC50 refers to the concentration that produces a half-maximal response. In general, IC50 refers to the concentration at which inhibition is half-maximal.

With `CCCCCC=C(c1cc(C(=O)OC)c(OC)c(C(F)(F)F)c1)c1cc(C(=O)OC)c(OC)c(C(F)(F)F)c1`, the EC50 is greater than 200 µM and the IC50 worked out at 105 µM.

For the compound `C=C(Br)CNC(=O)NCCN1CCOCC1`, the EC50 was greater than 200 µM and the IC50 is greater than 200 µM.

For `CC(C)=CC1CC(C)C2(CCC3(C)CC4C5/C(=C\CC32)C(=O)OC5CC4(C)O)O1` (stereo unspecified), the EC50 is greater than 2 µM and the IC50 worked out at 0.398 µM.

For `Nc1ccc(S(=O)(=O)c2ccc(N)cc2)cc1`, the outcome was inactive.

As for `Cc1cc2c(C(C)C)c(O)c(O)c(C=O)c2c(O)c1-c1c(C)cc2c(C(C)C)c(O)c(O)c(C=O)c2c1O`, the EC50 was greater than 200 µM, the outcome was inactive and the half-inhibitory concentration (IC50) stood at 1.23 µM.

As to `O=C1CC(=O)NC(=NN2C(=O)/C(=C/c3ccccc3)N=C2c2ccccc2)N1`, the EC50 was greater than 200 µM and the IC50 was greater than 200 µM.

In the case of `N#CCC(=O)Nc1ccccc1O`, the EC50 was greater than 708 µM and the IC50 is greater than 708 µM.

As for `Cc1cc(=O)oc2c(C)c3oc(CBr)cc3cc12`, the EC50 is greater than 200 µM and the half-inhibitory concentration (IC50) is 0.447 µM.

For `CCOC(=O)CSCn1ncc2ccc([N+](=O)[O-])cc21`, the result was inactive.

With `COc1cc2c(cc1OC)C1C[C@]3(CCN1CC2)C(=O)N(c1ccccc1)C(=O)N3C(C)=O` (stereo partly specified), the EC50 was greater than 10 µM and the IC50 was greater than 10 µM.

Take `Cn1c2c(c3ccccc3c1=O)C(=O)c1ccccc1-2`: the EC50 was greater than 14.5 µM and the IC50 came to 7.41 µM.

Take `CS(=O)(=O)c1ccc(N2CC2)nn1`: the EC50 was greater than 200 µM and the half-inhibitory concentration (IC50) is 89.1 µM.

With `NS(=O)(=O)c1cc2c(cc1Cl)NC(C(=O)c1cc(=O)c3ccc(O)cc3o1)=NS2(=O)=O`, the EC50 is greater than 513 µM and the IC50 was greater than 513 µM.

As to `CCCN(CCC)C(=O)c1c(N2CCN(C)CC2)c2cccnc2n2c(C)cnc12`, the EC50 was greater than 200 µM and the IC50 was greater than 200 µM.

For the compound `CCOC(=S)NP(=O)(NC(=S)OCC)NC(=S)OCC`, the EC50 is greater than 200 µM and the IC50 was greater than 200 µM.

With `CCO[C@@H]1N(C2CC(N=[N+]=[N-])C(CO)O2)C(=O)NC(=O)[C@@]1(C)Cl` (stereo partly specified), the EC50 is greater than 200 µM and the IC50 was greater than 200 µM.

As for `C[Si](C)(C)C1=C([Si](C)(C)C)C(Cl)(Cl)C1=O`, the EC50 is greater than 20 µM and the half-inhibitory concentration (IC50) came out at 3.98 µM.

Consider `CC(=O)Nc1ncc(Sc2ccc([N+](=O)[O-])cc2)s1`, for which the EC50 was greater than 200 µM and the IC50 was greater than 200 µM.

Take `O=C(O)[C@@H]1CSC(c2ccccc2Cl)N1` (stereo partly specified): the EC50 was greater than 200 µM and the IC50 is 141 µM.

Turning to `CCCCCCCCCCCCNC(=S)OC`, the result was inactive.

For `COc1ccc(N2C(=O)/C(=C\c3cccc(Oc4ccccc4)c3)S(=O)(=O)C2c2ccccc2)cc1` (stereo unspecified), the EC50 was greater than 200 µM and the IC50 is 28.8 µM.

With `Cc1nn(-c2ccccc2)c2c1N=C(C(=O)O)CC(c1ccccc1)=N2`, the EC50 was greater than 200 µM and the IC50 turned out to be 91.2 µM.

As to `O=C(O)C(NCc1ccccc1)C(NCc1ccccc1)C(=O)O` (stereo unspecified), the EC50 is greater than 200 µM and the IC50 was greater than 200 µM.

In the case of `COC(=O)[C@@]12OC[C@]34[C@H]([C@@H](O)[C@@H]1O)[C@@]1(C)CC(=O)C(O)=C(C)[C@@H]1C[C@H]3OC(=O)[C@H](OC(=O)C(N)Cc1ccccc1)[C@@H]24` (stereo partly specified), the result was inactive.

In the case of `CCNC(=O)Cc1nc2c(=O)[nH]cnc2n1C1OC(CO)C(O)C1O` (stereo unspecified), the EC50 is greater than 200 µM and the IC50 was greater than 200 µM.

For `CN(C)C(=S)SC(=S)N(C)C`, the EC50 was greater than 200 µM and the half-inhibitory concentration (IC50) amounted to 11 µM.

As to `N#C/C(=C\c1ccccc1)c1cccc(I)c1`, the EC50 is greater than 200 µM and the half-inhibitory concentration (IC50) amounted to 55 µM.

Turning to `Nc1ccc2c(c1)S(=O)(=O)c1cc(N)ccc1-2`, the EC50 was greater than 200 µM and the IC50 is greater than 200 µM.

In the case of `CCOc1ccc(/C=C(\Cl)c2ccc(OC)cc2)cc1`, the EC50 is greater than 200 µM and the IC50 is greater than 200 µM.

On to `CS(=O)(=O)OCCCSCCSCCCOS(C)(=O)=O`, for which the EC50 is greater than 676 µM and the 50% inhibitory concentration (IC50) was greater than 676 µM.

As for `CC1(C)Oc2ccc3c(=O)c4ccccc4oc3c2C1C(=O)O` (stereo unspecified), the EC50 was greater than 200 µM and the IC50 was greater than 200 µM.

On to `CC(=O)Cc1cc(=O)c2c(C)cc(O)c(C3OC(CO)C(O)C(O)C3O)c2o1` (stereo unspecified), for which the EC50 is 31.6 µM and the IC50 amounted to 316 µM.

Turning to `O=C1c2cc3c(cc2CC1Br)CCC3` (stereo unspecified), the EC50 was greater than 20 µM and the IC50 was 0.38 µM.

Turning to `CCN(CC)S(=O)(=O)c1ccc(Nc2nc(Cl)nc(Cl)n2)cc1`, the EC50 was greater than 200 µM and the IC50 is greater than 200 µM.

For `O=NN1CN2CN(C1)CN(N=O)C2`, the EC50 is greater than 200 µM and the IC50 came out at 30.9 µM.

As to `Oc1c(CN2CCOCC2)ccc2ccccc12`, the EC50 is greater than 200 µM and the 50% inhibitory concentration (IC50) is 191 µM.

As for `CC1(C)CCc2cc3c(cc2O1)OC(C)(C)CC3=O`, the result was inactive.

Consider `CC(C)/C(Cl)=N/OC(NC(=O)Nc1ccc(Cl)c(Cl)c1)(C(F)(F)F)C(F)(F)F`, for which the result was inactive.

As to `O=C(N=Nc1ccc(Br)cc1)NNc1ccc(Br)cc1`, the EC50 was greater than 200 µM and the IC50 turned out to be 12.9 µM.

Regarding `Cc1noc(C(F)(F)Sc2ncccn2)n1`, the EC50 was 174 µM and the IC50 was greater than 200 µM.

Take `CCOC(=O)NC(=O)c1c[nH]c(=O)[nH]c1=O`: the EC50 is greater than 1100 µM and the 50% inhibitory concentration (IC50) is greater than 1100 µM.

Take `O=c1c(SCc2ccc(Cl)c(Cl)c2)c(SCc2ccc(Cl)c(Cl)c2)cnn1-c1ccccc1`: the EC50 is greater than 6.76 µM and the IC50 was greater than 6.76 µM.

For `NC(=S)NN=C(C1CC1)C1CC1`, the EC50 was greater than 200 µM and the IC50 is greater than 200 µM.

With `CNC(=O)c1ccccc1CNC(=S)Nc1cccc(C)c1`, the EC50 was greater than 200 µM and the concentration for half-maximal inhibition (IC50) is greater than 200 µM.

As for `N#CC1(C#N)NC(c2ccsc2)C(C#N)(C#N)NC1c1ccsc1` (stereo unspecified), the EC50 was greater than 200 µM and the 50% inhibitory concentration (IC50) came to 115 µM.

As for `CC[C@H]1C[C@@H](O)[C@@H]2[C@H](O)[C@H](O)CN2C1`, the EC50 was greater than 200 µM and the 50% inhibitory concentration (IC50) was greater than 200 µM.

With `COc1ccc(C(=O)NNC(=O)c2nsc3ccccc23)cc1`, the EC50 is greater than 41.7 µM and the IC50 is greater than 41.7 µM.

`O=c1cc(N2CCOCC2)n2ccccc2n1`: the EC50 is greater than 200 µM and the IC50 is greater than 200 µM.

For `N#CC12CCC(O)C(CC1)C2=O` (stereo unspecified), the result was inactive.

For `O=c1c(-c2ccccc2)nc2ccccc2n1CC1CCCN2CCCC[C@H]12` (stereo partly specified), the EC50 is greater than 200 µM and the IC50 was found to be 39.8 µM.

Turning to `COc1cc(C=O)c(-c2cc(OC)c(OC)cc2C=O)cc1OC`, the EC50 is greater than 44.7 µM and the IC50 was greater than 44.7 µM.

Regarding `O=C(/C=C/c1cccc(Cl)c1)c1ccccc1`, the EC50 is greater than 11.2 µM and the IC50 is greater than 11.2 µM.

In the case of `O=C(CC1Sc2ccccc2NC1=O)Nc1ccc(Cl)cc1` (stereo unspecified), the EC50 is greater than 107 µM and the IC50 was greater than 107 µM.

Consider `COC(=O)c1cc(C(=CCCCCCl)c2cc(Cl)c(OC)c(C(=O)OC)c2)cc(Cl)c1OC`, for which the EC50 is 29.5 µM and the IC50 was greater than 200 µM.

`CCOC(=O)C(C(=O)OCC)S(C)(=O)=O`: the EC50 was greater than 251 µM and the IC50 was greater than 251 µM.

As for `Clc1ccccc1C=NCC1CCC(CN=Cc2ccccc2Cl)CC1` (stereo unspecified), the EC50 was greater than 200 µM and the IC50 is 9.12 µM.

As for `Nc1nc(Cl)c(N)c(NCC2(CO)CC(O)C2)n1` (stereo unspecified), the EC50 was greater than 200 µM and the IC50 was greater than 200 µM.

On to `O=C1CC(=O)N(c2ccccc2)N1/C(=C/c1ccccc1)c1ccccc1`, for which the EC50 is greater than 200 µM and the IC50 worked out at 9.33 µM.

As to `O=C(c1cc(Cl)ccc1Cl)N1CCN(c2ccc(Cl)c(Cl)c2)CC1`, the EC50 is greater than 200 µM and the IC50 was determined as 25.1 µM.

Take `COc1ccccc1/C=C/c1nc2ccccc2o1`: the EC50 was greater than 200 µM and the IC50 turned out to be 107 µM.

Consider `COc1ccc(-c2c(N)n(-c3nc4ccccc4s3)c(=O)c3cc([N+](=O)[O-])ccc23)cc1`, for which the EC50 was greater than 100 µM and the half-maximal inhibitory concentration (IC50) is 1.07 µM.

Take `COC(=O)c1cc2c(cc1CC1Cc3cc4c(cc3C1)CCC4)CCC2`: the EC50 was greater than 200 µM and the half-inhibitory concentration (IC50) was greater than 200 µM.

For `On1ccccc1=S`, the EC50 is greater than 2 µM and the IC50 was found to be 1.32 µM.

For `CCOC(=O)Cc1cc(=O)[nH]n(-c2ccccc2)c1=O`, the outcome was inactive.

On to `CCSC(CCC(NC(C)=O)C(=O)O)SCC` (stereo unspecified), for which the EC50 is greater than 200 µM and the IC50 was greater than 200 µM.

`Cc1cn(C2CC3C(COC(CC[Se]c4ccccc4)N3O)O2)c(=O)[nH]c1=O` (stereo unspecified): the EC50 was 24 µM and the IC50 is 158 µM.

On to `Cc1cc2occ(/C=C\C3=C(C#N)C(=O)OC(C)(C)C3)c(=O)c2cc1C`, for which the EC50 is greater than 7.76 µM and the IC50 was greater than 7.76 µM.

Take `Cc1ccc(NC(=O)CC2C(=O)Nc3ccccc3S2=O)c(C)c1` (stereo unspecified): the EC50 was greater than 15.1 µM and the IC50 was greater than 15.1 µM.

`Cn1cc(C2NC(=O)c3ccccc3N2)c2ccccc21` (stereo unspecified): the EC50 is greater than 200 µM and the IC50 came to 0.117 µM.

In the case of `O=c1c2ccccc2nc(N/N=C/c2ccc([N+](=O)[O-])cc2)n1-c1ccccc1`, the EC50 is greater than 50.1 µM and the IC50 is greater than 50.1 µM.

As for `C(=C\P(c1ccccc1)c1ccccc1)/P(/C=C/P(c1ccccc1)c1ccccc1)c1ccccc1`, the EC50 is greater than 4.9 µM and the IC50 is greater than 4.9 µM.

For `COC(=O)C1=C(O)c2cc(OC)c(OC)c(OC)c2C(c2ccc3c(c2)OCO3)[C@@H]1C(=O)OC` (stereo partly specified), the outcome was inactive.

On to `CCSc1sc(=Nc2ccc(N=c3sc(C)c(SC)s3)cc2)sc1-c1ccc(C)cc1`, for which the result was inactive.

Turning to `Cc1cc(NS(=O)(=O)c2ccc(Nc3c4ccccc4nc4c(C(=O)NC(CO)(CO)CO)cccc34)cc2)no1`, the EC50 was greater than 200 µM and the IC50 came to 11.2 µM.

Consider `O=C(O)CCc1ccc2c(c1)CC1(Cc3ccccc3C1)C2`, for which the EC50 is greater than 200 µM and the half-inhibitory concentration (IC50) came to 102 µM.

Values taken from PubChem BioAssay AID179 (DTP/NCI, 2004).
